Patent US11319305B2, “Pyrimidine sulfamide derivative and preparation method and medical application thereof” (SHIJIAZHUANG SAGACITY NEW DRUG DEVELOPMENT CO., LTD., priority 2017, dated 2022)

Legend:
[1] = biological target: T1, bile salt transport pump (BSEP) (Homo sapiens, UniProt O95342); test: Inhibition test on bile salt transfer pump (BSEP), taurocholic acid uptake in BSEP-Hi5-VT vesicles; assay type: in vitro ADME
T1 construct: purchased Solvo Biotechnology SB-BSEP-Hi5-VT; host or cells: Hi5 insect cells (read from the product name; own knowledge)
Description: Prepared with buffer A, 8.16 mM ATP and 4.08 μM taurocholic acid were contained in 12 mL buffer A.
Prepared with buffer A, 8.16 mM AMP, 4.08 μM taurocholic acid 12 mL buffer A were contained in buffer A.
A solution containing BSEP-Hi5-VT 5 μg/μL was prepared with buffer A.
The compound was diluted to 100 mM with DMSO; then serially diluted 3-fold for an 11-point dilution; the minimum concentration was 0.169 μM.
Positive reference Glyburide was diluted to 20 mM with DMSO; then serially diluted 2-fold for an 11-point dilution; the minimum concentration was 19.5
0.3 μL of a solution of the compound in DMSO or a diluted DMSO solution were transferred into corresponding wells of the compound plate using ECHO, respectively.
14.7 μL of ATP buffer was added to the compound and the corresponding wells of zero percent effect (ZPE), respectively.
14.7 μL of AMP buffer was added to the corresponding wells of 100% effect (HPE), respectively.
The plate was shaked for 10 minutes at 25° C.
15 μL of BSEP-H15-VT Vesicle solution was added to all wells, respectively, and the plate was shaked for another 40 minutes at 25° C.
6.5 μL 0.5 M ethylenediaminetetraacetic acid (EDTA) solution was added to all wells immediately, followed by addition of 65 μL of buffer B, and the whole reaction was completed.
7.95 μL of liquid was transferred to the filter plate from the compound plate at the end of the reaction using an instrument.
After placing the liquid receiving plate under the filter plate, the liquid was removed using a centrifuge and the receiving plate liquid was discarded.
9.90 μL of buffer B was added to the filter plate. After placing the liquid receiving plate under the filter plate, the liquid was removed using a centrifuge, and the receiving plate liquid was discarded, and filter plate was washed for three times in total.
The filter plate was dried overnight.
On the next day, 80 μL of methanol/water (80/20, volume ratio) solution was added to the filter plate.
The plate was shaked for 15 minutes after the filter plate was attached to the membrane.
A new liquid receiving plate was placed under the filter plate, and the filter plate was centrifuged for 5 minutes, and all liquids in the filter plate were filtrated into the receiving plate.
15 μL of internal standard solution was added to each wells in the liquid receiving plate, and the plate was sealed with a membrane.
The content of taurocholic acid in the receiving plate was detected using LC/MS/MS.
Several concentrations were tested in each experiments. The data were analyzed using Prism to generate a concentration-response curve, and IC50 values of the compounds were calculated.

[2] = tested on: human liver microsomal cytochrome P450 isozyme (CYP1A2, CYP2C9, CYP2C19, CYP2D6 and CYP3A4); test: Human liver microsomal cytochrome P450 isozyme inhibition assay, summary over the main isozymes; assay type: in vitro ADME; conditions: human liver microsomes
Description: (§1) Experimental Embodiment 4: Human Liver Microsomal Cytochrome P450 Isozyme Inhibition Assay The purpose of the assay was to evaluate the inhibitory activity of the samples against human liver microsomal cytochrome P450 isozyme (CYP1A2, CYP2C9, CYP2C19, CYP2D6 and CYP3A4) using the 5-in-1 probe substrate of the CYP isozyme. Mixed human liver microsomes (HLM) were purchased from Corning Inc. (Steuben, N.Y., USA) and stored below −80° C. before use. The test compound working solution which has been diluted into serial concentrations was added to an incubation system containing human liver microsomes, probe substrates and circulating system cofactors, and a control containing solvent without the test compound was used as the enzyme activity control (100%). The concentration of the metabolite produced by the probe substrate in the sample was determined using a liquid chromatography-tandem mass spectrometry (LC-MS/MS) method. Nonlinear regression analysis was performed on the average percent activity versus concentration of subjects using SigmaPlot (V.11). The IC50 value was calculated by a three-parameter or four-parameter inverse-logarithmic equation.

[3] = biological target: T2, Human Pregnane X Receptor (PXR) (Homo sapiens, UniProt O75469); test: Human pregnane X receptor (PXR) assay, induction of PXR-mediated CYP3A expression in DPX2 cells; assay type: cell-based
T2 construct: host or cells: DPX2 cells
T2 sequence (O75469 1-434): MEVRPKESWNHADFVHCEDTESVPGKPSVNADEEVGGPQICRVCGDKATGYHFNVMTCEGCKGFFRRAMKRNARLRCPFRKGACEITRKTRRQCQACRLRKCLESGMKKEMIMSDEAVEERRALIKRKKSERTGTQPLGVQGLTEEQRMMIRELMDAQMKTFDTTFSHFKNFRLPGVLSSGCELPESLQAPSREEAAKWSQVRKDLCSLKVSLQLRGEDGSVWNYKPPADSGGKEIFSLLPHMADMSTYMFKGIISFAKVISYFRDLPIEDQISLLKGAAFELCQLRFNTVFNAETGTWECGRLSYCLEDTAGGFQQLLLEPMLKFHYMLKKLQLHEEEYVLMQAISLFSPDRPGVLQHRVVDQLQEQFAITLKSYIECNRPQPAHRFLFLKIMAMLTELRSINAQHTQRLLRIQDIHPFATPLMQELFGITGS
Description: Experimental Embodiment 3: Human Pregnane X Receptor (PXR) Assay
The effect of the compounds on the induction of PXR-mediated CYP3A expression was evaluated.
1. DPX2 cells were thawn under sterile conditions.
2. DPX2 cell solution was distributed in 96-well plate (100 μL/well), and the plate was placed in a 5% CO2/37° C. incubator overnight.
3. Quantitative feeding medium was thawn in a 37° C. water bath. Positive control rifampin was thawn at room temperature. A series of test compounds and positive control dilutions were prepared in quantitative feeding medium. The cells were carefully aspirated from each wells without disturbing the cells during aspiration and the medium was discarded. 100 μL of each test compound concentration was transferred to pre-labeled wells. The operation of the positive control group and the blank group were the same. The plate was placed back into the incubator for 24 hours exposure.
(1) 7 μL of Luciferin-IPA was added to […] feeding medium, the mixture was mixed by inverting, and poured into a Luciferin-IPA reagent tank.
(2) The 96-well plate was taken out from the incubator, and the media was carefully aspirated from each wells. 50 μL of the Luciferin-IPA reagent was added to each wells, and the cell plate was placed back into the incubator for 60 minutes.
(3) During incubation, the P450-Glo buffer was poured into the Luciferin detection reagent, and the mixture was mixed by inverting.
(4) The 96-well plate was taken out from the incubator, and 40 μL of solution from each well was transferred into the corresponding white 96-well plate, and the corresponding position of each wells was consistent with the original cell plate. […]
(8) After incubation with Luciferin detection reagent for 20 minutes, a photometer (set 1-5 seconds. Readout Time) was used to measure the luminescence of each wells of the white 96-well plate. […]
(10) After incubating for 60 minutes at 37° C., the original 96-well plate was taken out of the incubator. The reader was set to the fluorescence mode, the excitation wavelength was set to 380-400 nm, the emission wavelength was set to 505 nm, and the fluorescence intensity of each wells was measured.
(11) The cell plate was taken out of the enzyme reader, and 100 μL of ONE-Glo™ detection reagent was added to each wells. […]
(12) The enzyme reader was set to 5 seconds for pre-shaking and 5 seconds for wells reading, and the fluorescence intensity in each hole was measured. […]
The positive control was rifampicin, six concentrations were tested in each experiment. The data was analyzed using Prism to generate a concentration-response curve and the EC50 value of the compound was calculated.

CYP3A4 = biological target: T3, CYP3A4 (Homo sapiens, UniProt P08684); test: Human liver microsomal cytochrome P450 isozyme inhibition assay, CYP3A4; assay type: in vitro ADME; conditions: human liver microsomes
T3 construct: Mixed human liver microsomes (HLM) were purchased from Corning Inc; tissue Corning Inc; host or cells: pooled human liver microsomes
Description: as §1

CYP2D6 = biological target: T4, CYP2D6 (Homo sapiens, UniProt P10635); test: Human liver microsomal cytochrome P450 isozyme inhibition assay, CYP2D6; assay type: in vitro ADME; conditions: human liver microsomes
T4 construct: Mixed human liver microsomes (HLM) were purchased from Corning Inc; tissue Corning Inc; host or cells: pooled human liver microsomes
Description: as §1

CYP2C9 = biological target: T5, CYP2C9 (Homo sapiens, UniProt P11712); test: Human liver microsomal cytochrome P450 isozyme inhibition assay, CYP2C9; assay type: in vitro ADME; conditions: human liver microsomes
T5 construct: Mixed human liver microsomes (HLM) were purchased from Corning Inc; tissue Corning Inc; host or cells: pooled human liver microsomes
Description: as §1

CYP1A2 = biological target: T6, CYP1A2 (Homo sapiens, UniProt P05177); test: Human liver microsomal cytochrome P450 isozyme inhibition assay, CYP1A2; assay type: in vitro ADME; conditions: human liver microsomes
T6 construct: Mixed human liver microsomes (HLM) were purchased from Corning Inc; tissue Corning Inc; host or cells: pooled human liver microsomes
T6 sequence (P05177 1-516): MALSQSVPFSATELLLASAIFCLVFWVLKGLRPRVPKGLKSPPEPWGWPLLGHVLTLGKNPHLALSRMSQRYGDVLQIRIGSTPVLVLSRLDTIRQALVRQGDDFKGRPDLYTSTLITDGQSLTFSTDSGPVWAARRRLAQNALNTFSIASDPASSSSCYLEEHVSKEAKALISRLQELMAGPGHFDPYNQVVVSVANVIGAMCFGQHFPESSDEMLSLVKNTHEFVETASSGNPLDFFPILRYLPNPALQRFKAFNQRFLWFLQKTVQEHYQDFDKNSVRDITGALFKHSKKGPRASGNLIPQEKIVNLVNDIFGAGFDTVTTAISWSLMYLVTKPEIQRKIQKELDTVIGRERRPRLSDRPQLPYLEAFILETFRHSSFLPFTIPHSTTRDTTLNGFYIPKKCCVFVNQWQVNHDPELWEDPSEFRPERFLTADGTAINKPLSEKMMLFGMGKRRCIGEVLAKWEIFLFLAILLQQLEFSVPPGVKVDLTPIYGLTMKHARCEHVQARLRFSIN
Description: as §1

CYP2C19 = biological target: T7, CYP2C19 (Homo sapiens, UniProt P33261); test: Human liver microsomal cytochrome P450 isozyme inhibition assay, CYP2C19; assay type: in vitro ADME; conditions: human liver microsomes
T7 construct: Mixed human liver microsomes (HLM) were purchased from Corning Inc; tissue Corning Inc; host or cells: pooled human liver microsomes
Description: as §1

T1 sequence (O95342 whole entry): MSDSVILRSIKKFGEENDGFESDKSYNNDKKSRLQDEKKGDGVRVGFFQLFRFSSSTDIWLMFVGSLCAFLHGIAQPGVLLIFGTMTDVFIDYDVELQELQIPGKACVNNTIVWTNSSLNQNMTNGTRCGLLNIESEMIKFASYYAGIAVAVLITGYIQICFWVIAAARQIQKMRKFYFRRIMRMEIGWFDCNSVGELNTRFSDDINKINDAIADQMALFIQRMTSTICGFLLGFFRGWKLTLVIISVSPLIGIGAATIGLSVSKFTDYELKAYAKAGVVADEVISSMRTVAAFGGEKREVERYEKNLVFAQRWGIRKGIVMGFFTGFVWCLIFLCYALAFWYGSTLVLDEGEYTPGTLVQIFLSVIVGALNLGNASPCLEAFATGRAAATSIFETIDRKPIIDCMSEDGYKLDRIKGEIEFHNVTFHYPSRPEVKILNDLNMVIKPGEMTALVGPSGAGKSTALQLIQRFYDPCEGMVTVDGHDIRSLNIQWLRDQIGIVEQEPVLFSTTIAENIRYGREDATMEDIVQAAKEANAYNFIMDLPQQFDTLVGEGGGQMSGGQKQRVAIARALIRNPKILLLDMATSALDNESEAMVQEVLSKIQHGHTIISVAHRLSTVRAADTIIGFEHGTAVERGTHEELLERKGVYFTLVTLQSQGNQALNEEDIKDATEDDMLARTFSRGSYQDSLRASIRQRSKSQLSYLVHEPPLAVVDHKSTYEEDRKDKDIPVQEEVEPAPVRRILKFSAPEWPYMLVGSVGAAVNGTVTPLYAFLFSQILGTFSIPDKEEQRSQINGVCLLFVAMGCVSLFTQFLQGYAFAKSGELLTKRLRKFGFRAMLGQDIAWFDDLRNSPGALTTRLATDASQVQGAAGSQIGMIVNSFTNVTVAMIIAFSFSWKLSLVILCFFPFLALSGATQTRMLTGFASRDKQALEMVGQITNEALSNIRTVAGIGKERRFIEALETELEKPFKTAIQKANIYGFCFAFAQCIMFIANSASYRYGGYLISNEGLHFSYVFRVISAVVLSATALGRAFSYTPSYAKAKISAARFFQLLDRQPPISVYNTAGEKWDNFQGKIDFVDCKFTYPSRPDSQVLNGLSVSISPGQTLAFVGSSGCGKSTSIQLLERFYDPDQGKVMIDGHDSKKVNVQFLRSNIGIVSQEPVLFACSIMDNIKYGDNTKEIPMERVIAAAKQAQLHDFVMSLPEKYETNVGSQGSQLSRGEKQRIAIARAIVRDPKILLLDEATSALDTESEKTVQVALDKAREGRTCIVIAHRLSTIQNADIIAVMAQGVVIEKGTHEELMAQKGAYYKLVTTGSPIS
T5 sequence (P11712 whole entry): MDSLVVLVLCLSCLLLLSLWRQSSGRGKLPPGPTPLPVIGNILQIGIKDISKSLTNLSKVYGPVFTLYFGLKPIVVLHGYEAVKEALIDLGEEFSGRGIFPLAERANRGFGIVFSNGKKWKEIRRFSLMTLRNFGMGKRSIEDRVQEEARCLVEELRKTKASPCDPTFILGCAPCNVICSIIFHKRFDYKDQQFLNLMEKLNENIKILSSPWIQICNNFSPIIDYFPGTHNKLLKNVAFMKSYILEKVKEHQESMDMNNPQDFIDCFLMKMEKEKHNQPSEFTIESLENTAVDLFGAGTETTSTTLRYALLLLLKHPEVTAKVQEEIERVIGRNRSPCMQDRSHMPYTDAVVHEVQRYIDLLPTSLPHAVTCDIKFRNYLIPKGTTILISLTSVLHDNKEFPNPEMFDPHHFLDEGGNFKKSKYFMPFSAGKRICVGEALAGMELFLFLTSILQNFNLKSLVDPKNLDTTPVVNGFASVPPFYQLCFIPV
T7 sequence (P33261 whole entry): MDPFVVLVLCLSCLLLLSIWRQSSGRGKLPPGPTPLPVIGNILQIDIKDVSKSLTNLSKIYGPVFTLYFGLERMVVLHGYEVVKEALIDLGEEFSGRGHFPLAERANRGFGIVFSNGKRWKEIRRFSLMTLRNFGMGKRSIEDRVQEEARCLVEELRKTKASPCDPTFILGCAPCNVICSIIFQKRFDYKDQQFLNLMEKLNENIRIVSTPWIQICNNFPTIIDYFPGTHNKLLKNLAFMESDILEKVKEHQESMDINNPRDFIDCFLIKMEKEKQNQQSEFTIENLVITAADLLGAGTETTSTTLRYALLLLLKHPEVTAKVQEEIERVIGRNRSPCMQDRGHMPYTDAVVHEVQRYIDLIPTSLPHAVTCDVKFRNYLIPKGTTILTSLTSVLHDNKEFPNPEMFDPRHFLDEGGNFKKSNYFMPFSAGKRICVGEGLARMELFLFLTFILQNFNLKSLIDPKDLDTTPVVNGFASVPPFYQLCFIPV
T4 sequence (P10635 whole entry): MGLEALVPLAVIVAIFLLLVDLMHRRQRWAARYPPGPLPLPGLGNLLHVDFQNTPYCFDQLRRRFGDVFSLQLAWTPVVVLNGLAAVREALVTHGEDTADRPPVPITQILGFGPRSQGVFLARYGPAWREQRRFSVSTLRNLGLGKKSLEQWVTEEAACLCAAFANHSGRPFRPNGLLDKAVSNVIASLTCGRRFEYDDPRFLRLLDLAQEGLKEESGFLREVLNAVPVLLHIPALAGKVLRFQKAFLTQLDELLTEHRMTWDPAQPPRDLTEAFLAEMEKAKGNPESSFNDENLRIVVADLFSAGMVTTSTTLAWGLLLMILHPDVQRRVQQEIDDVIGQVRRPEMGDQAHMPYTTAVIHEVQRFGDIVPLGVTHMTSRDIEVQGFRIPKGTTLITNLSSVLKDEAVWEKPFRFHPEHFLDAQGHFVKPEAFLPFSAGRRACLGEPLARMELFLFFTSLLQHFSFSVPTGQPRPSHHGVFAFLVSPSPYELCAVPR
T3 sequence (P08684 whole entry): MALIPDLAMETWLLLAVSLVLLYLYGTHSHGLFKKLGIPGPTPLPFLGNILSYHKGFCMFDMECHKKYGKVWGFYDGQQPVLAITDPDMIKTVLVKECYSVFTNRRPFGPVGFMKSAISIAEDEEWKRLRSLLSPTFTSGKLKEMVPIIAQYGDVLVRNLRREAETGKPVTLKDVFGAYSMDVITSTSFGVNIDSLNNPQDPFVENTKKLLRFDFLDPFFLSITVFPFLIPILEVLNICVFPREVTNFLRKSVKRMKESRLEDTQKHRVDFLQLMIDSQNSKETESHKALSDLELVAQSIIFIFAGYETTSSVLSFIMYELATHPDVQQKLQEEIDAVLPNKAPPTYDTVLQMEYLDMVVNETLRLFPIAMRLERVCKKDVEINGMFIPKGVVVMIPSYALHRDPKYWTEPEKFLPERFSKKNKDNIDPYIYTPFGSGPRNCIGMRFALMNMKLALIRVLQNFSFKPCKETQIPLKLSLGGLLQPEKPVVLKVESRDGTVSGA

- inhibitory effects on four main isozymes of CYP (in words) [2]: weak
- induction effect on PXR-mediated CYP3A expression (in words) [3]: relatively strong induction effect
- EC50 ([3]; DPX2 cells, 24 hours exposure, ± is calculation error of simulation curve, read-out: EC50, induction effect on PXR-mediated CYP3A expression): 6.34 ± 0.17 µM
- IC50 (CYP3A4): 23 µM
- IC50 (CYP2D6): > 50 µM
- IC50 (CYP2C9): 7.5 µM
- inhibitory effects on the isozymes CYP2C9 (in words) (CYP2C9): moderate
- IC50 (CYP1A2): 37 µM
- IC50 (CYP2C19): 31 µM
Structure (SMILES): CCCNS(=O)(=O)Nc1ncnc(OCCOc2ncc(Br)cn2)c1-c1ccc(Br)cc1 [macitentan, reference compound]
- inhibitory effect on the bile salt transport pump (BSEP) (in words) [1]: strong
- IC50 ([1]; substrate taurocholic acid, read-out: IC50, inhibitory effect on the bile salt transport pump (BSEP)): 0.281 µM
